Test results: paper PMC11822212, “High-throughput screening identifies Aurora kinase B as a critical therapeutic target for Merkel cell carcinoma” (Nature Communications, 2025)
Where a name gives a salt, the structure may show the parent alone. Read-outs that look alike come from different tables or passages of the source.

Assays:
[1] = tested on: WAGA cells (VP-MCC); test: qHTS cell viability (CellTiter-Glo, 72 h; primary and follow-up small molecule screen); assay type: cell-based, human; conditions: for Area under the dose-response curve (AUC) WAGA: primary high-throughput screen, viability 72 h, n = 1
[2] = tested on: NIH-3T3 cells; test: qHTS cell viability (CellTiter-Glo, 72 h; primary screen), control cell line; assay type: cell-based, mouse; conditions: for Area under the dose-response curve (AUC) NIH3T3: primary high-throughput screen, viability 72 h, n = 1
[3] = tested on: MKL-1 cells (VP-MCC); test: qHTS cell viability (CellTiter-Glo, 72 h; primary and follow-up small molecule screen); assay type: cell-based, human; conditions: for Area under the dose-response curve (AUC) MKL-1: primary high-throughput screen, viability 72 h, n = 1
[4] = tested on: MKL-2 cells (VP-MCC); test: as above; assay type: cell-based, human; conditions: for Area under the dose-response curve (AUC) MKL-2: primary high-throughput screen, viability 72 h, n = 1
[5] = tested on: HACAT cells; test: qHTS cell viability (CellTiter-Glo, 72 h; primary screen), control cell line; assay type: cell-based, human; conditions: for Area under the dose-response curve (AUC) HACAT: primary high-throughput screen, viability 72 h, n = 1
[6] = tested on: CRL-7250 cells; test: as above; assay type: cell-based; conditions: for Area under the dose-response curve (AUC) CRL7250: primary high-throughput screen, viability 72 h, n = 1
[7] = tested on: HEK293T cells; test: as above; assay type: cell-based, human; conditions: for Area under the dose-response curve (AUC) HEK293T: primary high-throughput screen, viability 72 h, n = 1
[8] = tested on: UISO cells (VN-MCC); test: qHTS cell viability (CellTiter-Glo, 72 h; primary and follow-up small molecule screen); assay type: cell-based, human; conditions: for Area under the dose-response curve (AUC) UISO: primary high-throughput screen, viability 72 h, n = 1
[9] = tested on: MCC13 cells (VN-MCC); test: as above; assay type: cell-based, human; conditions: for Area under the dose-response curve (AUC) MCC13: primary high-throughput screen, viability 72 h, n = 1
[10] = tested on: MCC26 cells (VN-MCC); test: as above; assay type: cell-based, human; conditions: for Area under the dose-response curve (AUC) MCC26: primary high-throughput screen, viability 72 h, n = 1
[11] = area under the dose-response curve, WAGA cells, AUC<450 = reduced viability
[12] = area under the dose-response curve, NIH3T3 control cells, AUC<450 = reduced viability
[13] = area under the dose-response curve, MKL-1 cells, AUC<450 = reduced viability
[14] = area under the dose-response curve, MKL-2 cells, AUC<450 = reduced viability
[15] = area under the dose-response curve, HACAT control cells, AUC<450 = reduced viability
[16] = area under the dose-response curve, CRL7250 control cells, AUC<450 = reduced viability
[17] = area under the dose-response curve, HEK293T control cells, AUC<450 = reduced viability
[18] = area under the dose-response curve, UISO cells, AUC<450 = reduced viability
[19] = area under the dose-response curve, MCC13 cells, AUC<450 = reduced viability
[20] = area under the dose-response curve, MCC26 cells, AUC<450 = reduced viability

## CCOc1cc(N)c(Cl)cc1C(=O)NCC1CN(Cc2ccc(F)cc2)CCO1 (stereo not shown) [Mosapride citrate]
[1]; [11]
  WAGA_AUC: 443.892
[2]; [12]
  NIH3T3_AUC: 470.089
[3]; [13]
  MKL1_AUC: 438.77
[4]; [14]
  MKL2_AUC: 377.067
[5]; [15]
  HACAT_AUC: 473.779
[6]; [16]
  CRL7250_AUC: 480.736
[7]; [17]
  HEK293T_AUC: 457.079
[8]; [18]
  UISO_AUC: 489.758
[9]; [19]
  MCC13_AUC: 479.818
[10]; [20]
  MCC26_AUC: 466.055

## c1cc(-c2sc(-c3ccncc3)c(-c3ccncc3)c2-c2ccncc2)ccn1 [NSC-75503, reference compound]
[1]
  Area under the dose-response curve (AUC) WAGA: 489.4
[2]
  Area under the dose-response curve (AUC) NIH3T3: 481.5
[3]
  Area under the dose-response curve (AUC) MKL-1: 478.1
[4]
  Area under the dose-response curve (AUC) MKL-2: 550.2
[5]
  Area under the dose-response curve (AUC) HACAT: 453.3
[6]
  Area under the dose-response curve (AUC) CRL7250: 461.0
[7]
  Area under the dose-response curve (AUC) HEK293T: 450.5
[8]
  Area under the dose-response curve (AUC) UISO: 456.0
[9]
  Area under the dose-response curve (AUC) MCC13: 492.9
[10]
  Area under the dose-response curve (AUC) MCC26: 468.9

## Cc1ncc(CNC(=O)N(CCCl)N=O)c(N)n1 [Nimustine]
[1]
  WAGA_AUC: 465.895
[2]
  NIH3T3_AUC: 486.849
[3]
  MKL1_AUC: 478.611
[4]
  MKL2_AUC: 504.085
[5]
  HACAT_AUC: 461.645
[6]
  CRL7250_AUC: 491.102
[7]
  HEK293T_AUC: 481.182
[8]
  UISO_AUC: 443.983
[9]
  MCC13_AUC: 434.577
[10]
  MCC26_AUC: 438.698

## C[N+]1(CC2COC(c3ccccc3)(C3CCCCC3)O2)CCCCC1 (stereo not shown) [Oxapium iodide]
[1]; [11]
  WAGA_AUC: 422.785
[2]; [12]
  NIH3T3_AUC: 474.75
[3]; [13]
  MKL1_AUC: 436.858
[4]; [14]
  MKL2_AUC: 426.411
[5]; [15]
  HACAT_AUC: 474.271
[6]; [16]
  CRL7250_AUC: 483.841
[7]; [17]
  HEK293T_AUC: 460.835
[8]; [18]
  UISO_AUC: 505.529
[9]; [19]
  MCC13_AUC: 501.634
[10]; [20]
  MCC26_AUC: 482.458

## C[N+]1(C)[C@@H]2C[C@@H](OC(=O)[C@H](CO)c3ccccc3)C[C@H]1[C@@H]1O[C@@H]12 [Scopolamine methylbromide, reference compound]
[1]
  Area under the dose-response curve (AUC) WAGA: 491.2
[2]
  Area under the dose-response curve (AUC) NIH3T3: 468.1
[3]
  Area under the dose-response curve (AUC) MKL-1: 484.0
[4]
  Area under the dose-response curve (AUC) MKL-2: 496.7
[5]
  Area under the dose-response curve (AUC) HACAT: 476.9
[6]
  Area under the dose-response curve (AUC) CRL7250: 474.6
[7]
  Area under the dose-response curve (AUC) HEK293T: 479.5
[8]
  Area under the dose-response curve (AUC) UISO: 492.6
[9]
  Area under the dose-response curve (AUC) MCC13: 481.8
[10]
  Area under the dose-response curve (AUC) MCC26: 475.2

## CC(C)(C)NCC(O)c1cc(O)cc(O)c1.CC(C)(C)NCC(O)c1cc(O)cc(O)c1.O=S(=O)(O)O (stereo not shown) [Terbutaline hemisulfate]
[1]; [11]
  WAGA_AUC: 449.356
[2]; [12]
  NIH3T3_AUC: 463.76
[3]; [13]
  MKL1_AUC: 438.666
[4]; [14]
  MKL2_AUC: 440.746
[5]; [15]
  HACAT_AUC: 496.73
[6]; [16]
  CRL7250_AUC: 479.05
[7]; [17]
  HEK293T_AUC: 465.552
[8]; [18]
  UISO_AUC: 427.113
[9]; [19]
  MCC13_AUC: 446.456
[10]; [20]
  MCC26_AUC: 430.481

## CN1CCN(CCCN2c3ccccc3Sc3ccc(C(F)(F)F)cc32)CC1 [Trifluoperazine hydrochloride, reference compound]
[1]
  Area under the dose-response curve (AUC) WAGA: 495.2
[2]
  Area under the dose-response curve (AUC) NIH3T3: 467.6
[3]
  Area under the dose-response curve (AUC) MKL-1: 497.8
[4]
  Area under the dose-response curve (AUC) MKL-2: 488.7
[5]
  Area under the dose-response curve (AUC) HACAT: 455.5
[6]
  Area under the dose-response curve (AUC) CRL7250: 412.6
[7]
  Area under the dose-response curve (AUC) HEK293T: 471.8
[8]
  Area under the dose-response curve (AUC) UISO: 500.3
[9]
  Area under the dose-response curve (AUC) MCC13: 486.4
[10]
  Area under the dose-response curve (AUC) MCC26: 481.8
